Laboratory results reported in patent publication US20240366571A1, “MODULATORS OF SK4 POTASSIUM CHANNEL AND USES THEREOF” (Ramot at Tel-Aviv University Ltd., priority 2022, published 2024).
Read-outs that look alike come from different tables or passages of the source.

How the values were obtained:
[1] = system: rat model of heart failure (HF) post-myocardial infarction (MI); assay: Rat model of heart failure post-myocardial infarction; format: in vivo; conditions: vs vehicle
Procedure: […] Experimental setup and details are described, for example, in Murninkas et al. Am J Physiol-Heart Circul Physiol. (2021), 320, H713-H24.
Following electrode implantation and animal recovery, baseline EP (electrophysiological) measurements were performed followed by random division of the animals to treatment with the exemplary compound vs. treatment with vehicle.
Masson-trichrome staining: staining was performed according to a standard procedure, as described, for example, in N. Foot, Stain Technology (2009), Volume 8, 1933—Issue 3, 101-110.

[2] = target: T1, WT SK4 channel co-transfected with CaM (Homo sapiens, UniProt O15554); assay: Whole-cell patch-clamp of WT SK4 channel co-transfected with WT CaM or CaM mutants; format: cell-based
T1 construct: expressed in transfected cells; host or cells: CHO cells
Procedure: (§1) Constructs: For CHO cell transfection, the following were cloned: human SK1, rat SK2, human SK3, and rat calmodulin into the pcDNA3 vector, human SK4 into pEGFP-C1 vector, and PIP4,5-kinase into an IRES-dsRed plasmid. The mutations were introduced using the PCR-based QuikChange™ site-directed mutagenesis (Stratagene®) and were verified by full sequencing of the entire plasmid vector.
Whole-cell patch-clamp recording: Voltage-clamp recordings were performed using the whole-cell configuration of the patch-clamp technique. Signals were amplified using an […] patch-clamp amplifier (Molecular Devices), sampled at 5 kHz and filtered at 2.4 kHz via a four pole Bessel low pass filter. Data were acquired using pClamp™ 10.5 software in conjunction with an Axon™ DigiData® 1440A interface (Molecular Devices). The patch pipettes were pulled from borosilicate glass (Harvard Apparatus) with a resistance of 3-5 megaohms (MΩ). The intracellular pipette solution contained 130 mM KCl, 5 mM EGTA, 10 mM HEPES, pH 7.3 (adjusted with KOH), and CaCl2 calculated for a final concentration of 1 μM free-Ca^2+, by MAXCHELATOR (WEBMAXC STANDARD) software, with sucrose added to adjust osmolarity to 290 mosM. The external solution (310 mosM) contained 140 mM NaCl, 4 mM KCl, 1.8 mM CaCl2, 1.2 mM MgCl2, 11 mM glucose, and 5.5 mM HEPES adjusted with NaOH to pH 7.3. CHO cells were held at −90 millivolt (mV) and SK4 K^+ currents were activated using a voltage ramp protocol from −100 mV to +60 mV for 150 milliseconds. Electrophysiological data analysis was performed using the Clampfit program (pClamp™ 10.5; Molecular Devices).
To examine ex-vivo the interactions between BA6b9 and the simulated residues seen in FIG. 5B, residues that are in atomic proximity and are expected to interact with BA6b9 were mutated. Such mutated residues were, for example, R191 and H192 of linker S4-S5, M72 and M76 of the CaM linker as well as L19, E22, Y179, S181, A184, Q187 and R189, which are more distant from BA6b9.

[3] = target: T2, human SK3 (Homo sapiens, UniProt Q9UGI6); assay: Whole-cell patch-clamp of SK3 currents in CHO cells; format: cell-based; conditions: 20 μM
T2 construct: expressed in transfected cells; host or cells: CHO cells
Procedure: as §1
Cell Culture and Transfection: Chinese hamster ovary (CHO) cells were grown in Dulbecco's modified Eagle's medium supplemented with 2 millimolar (mM) glutamine, 10% fetal calf serum, and antibiotics. In brief, 40,000 cells seeded on poly-L-lysine-coated glass coverslips (13 millimeter (mm) in diameter) in a 24-multiwell plate were transfected with 0.5 microgram (μg) pEGFP-SK4/0.5 μg mutant SK4, 1.2 μg dsRed-PIP4,5-kinase or with 1 μg SK1/SK2/SK3 together with pIRES-CD8 (0.3 μg) as a marker for transfection. […]
Whole-cell patch-clamp recording: Voltage-clamp recordings were performed using the whole-cell configuration of the patch-clamp technique. […] The intracellular pipette solution contained 130 mM KCl, 5 mM EGTA, 10 mM HEPES, pH 7.3 (adjusted with KOH), and CaCl2 calculated for a final concentration of 1 μM free-Ca^2+, by MAXCHELATOR (WEBMAXC STANDARD) software, with sucrose added to adjust osmolarity to 290 mosM. […]

[4] = 20 mg/kg daily for 2 weeks from one week post-MI

- modulation of WT SK4 co-transfected with CaM mutant M72A (representative trace) ([2]; 20 μM): not indicating modulation
- inhibition at 20 µM ([2]; read-out: inhibition of WT SK4 co-transfected with CaM mutant M72A): 0%
- inhibition at 20 µM ([2]; read-out: inhibition of WT SK4 co-transfected with CaM mutant M76A): 19%
- inhibition at 20 µM ([2]; read-out: inhibition of WT SK4 co-transfected with WT CaM): 47%
- SK3 activity in comparison with control [3]: 95%
- SK3 drug-to-control current ratio [3]: 0.95
SMILES: CCCCCCCn1c(=O)oc2ccccc21 [BA6b9, 3-heptylbenzo[d]oxazol-2(3H)-one]
- AF induction [1, 4]: markedly attenuates
- EF (ejection fraction) [1, 4]: does not affect
- total AF duration [1, 4]: markedly attenuates
- LA fibrosis ([1]; Masson-trichrome staining after post-MI treatment): reduction
- LA smooth muscle actin (SMA) ([1]; after post-MI treatment): reduction
